Source: PMC10603551 (Oncology Reports, 2023)
Structures can show the parent of a compound that is named as a salt.

Biological target: T1, STAT5b (Homo sapiens, UniProt P51692)
T1 sequence (P51692 1-787): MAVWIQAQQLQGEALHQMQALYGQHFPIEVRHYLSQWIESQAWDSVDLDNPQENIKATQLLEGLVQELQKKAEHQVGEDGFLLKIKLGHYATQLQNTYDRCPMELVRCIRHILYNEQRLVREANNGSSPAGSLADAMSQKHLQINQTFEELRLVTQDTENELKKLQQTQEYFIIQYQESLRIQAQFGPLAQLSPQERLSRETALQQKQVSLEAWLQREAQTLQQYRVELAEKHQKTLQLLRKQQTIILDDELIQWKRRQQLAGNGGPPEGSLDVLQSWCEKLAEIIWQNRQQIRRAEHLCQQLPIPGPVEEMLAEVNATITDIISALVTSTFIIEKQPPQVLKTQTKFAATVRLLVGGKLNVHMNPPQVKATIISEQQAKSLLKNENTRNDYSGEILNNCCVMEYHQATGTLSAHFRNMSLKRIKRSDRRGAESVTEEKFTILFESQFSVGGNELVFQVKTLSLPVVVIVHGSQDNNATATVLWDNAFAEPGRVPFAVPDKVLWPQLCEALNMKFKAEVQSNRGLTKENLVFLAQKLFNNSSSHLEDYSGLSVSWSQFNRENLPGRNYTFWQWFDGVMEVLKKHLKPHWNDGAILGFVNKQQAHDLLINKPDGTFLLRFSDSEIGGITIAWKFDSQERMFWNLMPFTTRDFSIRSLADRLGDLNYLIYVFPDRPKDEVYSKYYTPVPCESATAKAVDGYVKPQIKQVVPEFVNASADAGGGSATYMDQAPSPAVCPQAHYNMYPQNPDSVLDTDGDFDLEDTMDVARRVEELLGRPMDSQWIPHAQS
Type: binding

CC[C@@]1(O)C(=O)OCc2c1cc1n(c2=O)Cc2cc3c(CN(C)C)c(O)ccc3nc2-1 [compound 108, topotecan hydrochloride]
Ki: 1 to 3 µM
